Legend:
Assay type in all cases: cell-based, murine
neutral sphingomyelinase = assay: Mixed micellar assay, neutral sphingomyelinase activity in treated WEHI-231 cells; conditions: chelerythrine, within 30 minutes; SD
Procedure: FIG. 7C. Graph of neutral and acidic sphingomyelinase activity normalized to percent of control. Cells (2×10^7) were treated with chelerythrine for 30 minutes prior to being assayed for neutral or acidic sphingomyelinase activity. Error bars represent +/- SEM from 4 individual studies with duplicate determinants.
The mixed micellar sphingomyelinase assay using ^[14] C labeled sphingomyelin was performed as described (Wiegmann et al., 1994) with minor modifications as described herein. Exponentially growing cells 2×10^7 were treated, collected, and lysed in 200 μl of neutral buffer (20 mM Hepes, pH 7.4; 10 mM MgCl2, 2 mM EDTA, 5 mM DTT, […], 10 mM b-glycerolphosphate, 750 μM ATP, 1 mM PMSF, Leupeptin, Pepstatin, 2% Triton X-100) or an acid buffer (pH=5.5, 2% Triton X-100, 1 mM PMSF, Leupeptin, Pepstatin). After incubation for 5 minutes at 4° C., cells were homogenized by sonication and cell debris were removed by low speed centrifugation (800×g). The protein concentration was measured using the BioRad protein assay system (BioRad). Protein (50 μg) was incubated for 2 hours at 37° C. in a buffer (1 ml final volume) containing 20 mM HEPES, 1 mM MgCl2, and 0.9 μl [N-methyl-^14 C sphingomyelin]. […] Radioactive phosphorylcholine was measured by scintillation counting. Data is expressed as a percent of control for both the acidic and neutral sphingomyelinases. […]

WEHI-231 cells [1] = assay: Apoptosis / cell death of WEHI-231 (propidium iodide FACS, gel electrophoresis, DAPI); conditions: 24 hours; chelerythrine 10 μM or calphostin C 250 nM
Procedure: Cells undergoing apoptosis also shrink in size.
Cells, 5×10^5, were centrifuged at 1000 rpm and resuspended in approximately 100 μl cell culture media. The cell suspension was then mixed with 100 μl of DAPI (4',6-iamidino-2-phenylindole, Sigma D9542, 1 μg/ml in PBT (PBS+1% Triton X-100)). One drop of this mixture was placed on a microslide with a coverslip. The cells were viewed by fluorescence microscopy using an Olympus BX-40 microscope with a 100 Watt Mercury lamp, a 16 or 40 X Fluorite objective, N.A. 0.75, (Leco #1-UB527) and a UV filter cube (ex 330-385 nm, em 420 nm, wide band pass, Leco #U-M536). Images were photographed using an Optronics cooled low-light video camera (Leco #DEI-470TB) to which was attached a 2X coupler (Leco #HR200-CMT). The image was saved to a digital file at 72 dpi.
DNA degradation was assessed as previously described (Gottschalk et al., 1993; 1994). Briefly, following treatment in 100 mm plates or 24 well plates, cells were collected and lysed in 0.5 ml lysis buffer (0.6% SDS+10 mM EDTA, pH 7.0). NaCl was added to a final concentration of 1M, mixed by inversion, incubated for 12 hours at 4° C. and then spun at 14,000 g for 30 minutes. Samples were treated with chloroform (1:1) and precipitated in ethanol prior to electrophoresis in a 3% agarose gel and visualized with ethidium bromide.

WEHI-231 cells [2] = assay: Ceramide production by DAG kinase assay; conditions: Mus musculus, WEHI231, 0.5 h; 10 μM chelerythrine, approximately 30 minutes; read-out: ceramide generation increase
Procedure: FIG. 7A. Inhibition of PKC causes an increase in ceramide production through the activation of a neutral sphingomyelinase and decreases in sphingomyelin levels. Ceramide production was quantitated using the DAG kinase assay for WEHI-231 JM cells and total lipid extraction was used to assay sphingomyelin mass. Following addition of 10 μM chelerythrine, cells were lysed at the appropriate time points as described herein. Each data point represents the average percentage change in ceramide or sphingomyelin generation from baseline derived from at least 8 independent studies for all time points with the exception of those marked with * (n=4). Standard deviations depicted by error bars.
FIG. 7B. […] Ceramide production and sphingomyelin mass was quantitated identical to that for chelerythrine. Cells were lysed 2 hours following the addition of 250 nM calphostin C. […]
Quantitation of ceramide by diacylglycerol kinase was similar to that described by Dressler and Kolesnick (1990). […] Data was calculated as pmoles of ceramide/10^6 cells by scintillation counting. […]
In order to test whether PKC inhibition alters ceramide production, the DAG kinase assay was used to quantify intracellular ceramide following chelerythrine and calphostin C treatment (Dressler and Kolesnick, 1990; Preiss et al., 1986). […]

**Q.** With `COc1ccc2c(c[n+](C)c3c4cc5c(cc4ccc23)OCO5)c1OC` [chelerythrine, 1,2-dimethoxy-12-methyl[1,3]benzodioxolo[5,6-c]phenanthridinium] as the compound, how does the neutral sphingomyelinase activity (neutral sphingomyelinase) read?
**A.** Its neutral sphingomyelinase activity is 235% (+/-38 SD).

**Q.** And the cell death (WEHI-231 cells [1])?
**A.** The cell death was “greater than 90%”.

**Q.** And the activation at 10 µM (WEHI-231 cells [2])?
**A.** The activation at 10 µM was 100%.

Source: patent US6025365A, “Chelerythrine and radiation combined tumor therapy” (Arch Development Corp., priority 1997, dated 2000)
